# According to patent US20040241243A1, “Angiogenesis promotion by prostaglandin compositions and methods” (NexMed (Holdings) Inc., priority 2003, published 2004):
# How the values were obtained:
# [1] = biological target: EP2 receptor (Mus musculus, UniProt Q62053); details: read-out: affinity for the EP2 receptor; cited from earlier work
# [2] = test system: endothelial cells; details: in vitro; cited from earlier work
# [3] = test system: segments of rat iliac arteries; test: microvascular outgrowth from rat iliac artery ringlets cultured in Matrigel; format: cell-based, Sprague-Dawley rats
# Method: Each sample was placed on a reduced-growth factor Matrigel coated coverglass slide in a culture dish filled with serum-free medium. […] The cultures were incubated at 37° C. in a humidified atmosphere with 5% CO2. Digital photographs were taken of growth after 96 hours.
# Growth Factor Reduced Matrigel (Passaniti, A., et al., Lab. Invest. 1992 67:518-528) was purchased from Becton Dickinson (Mountain View, Calif.). Cell culture grade PGE1 was purchased from Sigma Chemical. (St. Louis, Mo.). RPIM-1640 and other cell culture reagents were purchased from GIBCO Invitrogen Corp. (Grand Island, N.Y.).
# Male Sprague-Dawley rats, two-months old, were used in this study. All animal care, treatments, and procedures were approved by the institutional Committee on Animal Research. The rats were sacrificed by intraperitoneal injection of sodium pentobarbital (50 mg/kg) followed by bilateral thoracotomy and the removal of segments of iliac arteries.
# The iliac artery segments isolated from Sprague-Dawley rats were sectioned into ringlets and cultured attached to Matrigel-coated glass coverslips. The coverslips were used as the supporting platform to facilitate samples processing for histological staining and examination. Coverslips were coated as follows. Growth Factor Reduced Matrigel (Becton Dickinson, Mountain View, Calif.) was diluted 3-fold in serum-free RPMI-1640 in a 35-mm culture dish on ice. The diluted Matrigel was then spread onto cold sterilized glass coverslips using a sterilized glass slide as spreader. The coated coverslips were placed in 35-mm culture dishes and incubated at 37° C. for 1 hr to allow the Matrigel to solidify. Iliac artery ringlets were placed on top of Matrigel coated coverslips and covered by 50 μl cold Growth Factor Reduced Matrigel which had been kept in liquid form. After a 5-min incubation at 37° C. to allow the Matrigel to polymerize, 3 ml of serum-free RPMI 1640 medium supplemented with 1×penicillin-streptomycin-fangizone (Cell Culture Facility, University of California, San Francisco) was added. […] The iliac artery ringlet cultures were maintained at 37 ° C. in a humidified atmosphere with 5% CO2.
# After 96 hours of incubation, the iliac artery ringlet cultures were examined. Microvascular growths were photographed using a professional DCS-420 digital camera (Eastman Kodak, Rochester, N.Y.) connected to an Olympus microscope and an Apple Macintosh PowerMac computer. All samples were photographed and the images were stored for later analysis. The digital images were analyzed using ChemiImager 4000 software (Alpha Innotech Corporation, San Leandro, Calif.) to determine the maximum length of the microvascular growths.
# Statistical analysis was performed using computer software from Primer of Biostatistics, 3rd ed. (Glantz SA, McGraw-Hill, Inc. New York, 1992). The data involving different time points were first analyzed by one-way analysis of variance (ANOVA). If ANOVA indicated a significant difference, the Student-Neuman-Keuls test was used to perform pair-wise comparisons.
# [4] = test system: VEGF; details: systemic treatment of patients; cited from earlier work
# [5] = three months intracavernous injections three times a week; cited from earlier work
# [6] = three months intracavernous injections three times a week; patients completing treatment; cited from earlier work
# EP2 receptor, sequence (Q62053 whole entry): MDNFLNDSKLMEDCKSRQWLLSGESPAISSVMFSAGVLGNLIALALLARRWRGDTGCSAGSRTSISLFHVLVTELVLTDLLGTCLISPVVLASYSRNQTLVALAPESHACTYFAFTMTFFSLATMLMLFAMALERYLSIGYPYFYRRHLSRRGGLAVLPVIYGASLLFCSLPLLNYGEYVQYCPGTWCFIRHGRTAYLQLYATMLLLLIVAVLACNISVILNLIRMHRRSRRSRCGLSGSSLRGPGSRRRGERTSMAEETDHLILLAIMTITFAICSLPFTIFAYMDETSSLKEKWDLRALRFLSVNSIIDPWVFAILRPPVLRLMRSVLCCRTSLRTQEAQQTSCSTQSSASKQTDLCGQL
Molecule,Kd [1] [µM],effect on VEGF [2],peak microvascular growth ([3]; 1 μM PGE1) [micrometers],"Length of longest microvascular growth ([3]; 1 μM PGE1, 96 hours) [μm]","Length of longest microvascular growth ([3]; 10 μM PGE1, 96 hours) [μm]","Length of longest microvascular growth ([3]; 20 μM PGE1, 96 hours) [μm]","Length of longest microvascular growth ([3]; 30 μM PGE1, 96 hours) [μm]","Length of longest microvascular growth ([3]; 60 μM PGE1, 96 hours) [μm]",effect on microvascular outgrowth ([3]; primary cultures of rat iliac artery segments),effect on VEGF expression [4],recovery of spontaneous erections [5],responsiveness to oral sildenafil therapy [5],patients reporting recovery of spontaneous erections sufficient for intercourse [6]
"CCCCC[C@H](O)/C=C/[C@H]1[C@H](O)CC(=O)[C@@H]1C/C=C\CCCC(=O)O [PGE2, prostaglandin E2]",~0.01,up-regulate VEGF,–,–,–,–,–,–,–,–,–,–,–
Prostaglandin E1 [PGE1],–,–,680,680,360,100,30,5,enhance microvascular outgrowth,up-regulate expression of VEGF,more likely to recover spontaneous erections,more likely to be responsive to oral sildenafil therapy,8 of the 12
